Read-outs that look alike come from different tables or passages of the source.
Legend:
PDGF-Ra = biological target: T1, PDGF-Ra (Homo sapiens, UniProt P16234); experiment: Inhibitory activity against PDGF-Ra phosphorylation by PDGF-AA stimulation using G292; type: cell-based; details: for IC50: > means inhibition at indicated concentration not more than 50%, < and << not less than 50%, read-out: PDGF (E) IC50; for inhibition at 0.1 µM: G292, read-out: PDGF (E) inhibition (%) at 100 nM
T1 construct: host or cells: G-292 human osteosarcoma cells
Method in brief: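 Phospho-PDGF-Ra ELISA: capture with PY-20 antiphosphotyrosine, detection with anti-PDGF-Ra and peroxidase secondary, read at 450 nm. Lysates came from G-292 osteosarcoma cells starved in 0.1% FBS, compound-treated 1 hr at 37° C, and stimulated with 50 ng/ml PDGF-AA for 5 min.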

c-kit = biological target: T2, c-kit (Homo sapiens, UniProt P10721); experiment: Inhibitory activity against c-kit autophosphorylation (MO7e cells, h-SCF); type: cell-based; details: for inhibition at 1 µM: Mo7e, at 1000 nM; for IC50: MO7e cells, read-out: c-kit IC50
T2 construct: MO7e (human megakaryocytic leukemia cell line) which had been arrested for 20 hr; endogenous in cells; host or cells: MO7e human megakaryocytic leukemia cell line
Method in brief: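 Ligand-induced c-kit tyrosine phosphorylation is measured in MO7e cells that were quiesced 20 hr and preincubated with compound for 1 hr prior to a 5 min pulse of 50 ng/ml human SCF. Phospho-c-kit is detected by anti-phosphotyrosine capture ELISA, A450.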

[1] = figure within parentheses in −( ) or >1000( )
[2] = figure within parentheses in >100( ), at 100 nM

T2 sequence (P10721 26-976): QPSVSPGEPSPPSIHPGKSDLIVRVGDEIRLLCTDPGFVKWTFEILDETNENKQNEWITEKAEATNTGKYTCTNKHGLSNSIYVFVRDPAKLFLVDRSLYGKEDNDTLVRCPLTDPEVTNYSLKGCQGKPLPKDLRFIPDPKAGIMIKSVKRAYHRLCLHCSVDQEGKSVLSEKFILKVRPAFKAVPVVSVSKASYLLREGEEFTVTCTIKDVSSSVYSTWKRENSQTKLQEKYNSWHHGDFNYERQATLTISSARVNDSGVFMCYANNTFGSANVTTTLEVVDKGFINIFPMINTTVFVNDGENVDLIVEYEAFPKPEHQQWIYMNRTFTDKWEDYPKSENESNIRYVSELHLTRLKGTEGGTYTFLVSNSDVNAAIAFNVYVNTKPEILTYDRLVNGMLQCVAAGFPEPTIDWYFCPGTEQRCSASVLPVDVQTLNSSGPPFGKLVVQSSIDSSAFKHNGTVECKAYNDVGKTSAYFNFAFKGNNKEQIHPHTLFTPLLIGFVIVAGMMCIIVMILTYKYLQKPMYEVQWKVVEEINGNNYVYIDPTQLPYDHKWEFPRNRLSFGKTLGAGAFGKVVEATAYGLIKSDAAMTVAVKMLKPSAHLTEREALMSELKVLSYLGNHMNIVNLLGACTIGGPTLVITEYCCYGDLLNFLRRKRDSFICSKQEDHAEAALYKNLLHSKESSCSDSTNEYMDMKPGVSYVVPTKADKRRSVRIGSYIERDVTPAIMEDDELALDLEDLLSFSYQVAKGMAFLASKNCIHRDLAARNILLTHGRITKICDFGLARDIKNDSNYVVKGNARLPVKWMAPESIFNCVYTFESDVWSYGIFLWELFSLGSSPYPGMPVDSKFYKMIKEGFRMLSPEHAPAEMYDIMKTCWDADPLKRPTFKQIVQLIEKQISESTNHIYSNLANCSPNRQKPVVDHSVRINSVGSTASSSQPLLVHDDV
T1 sequence (P16234 24-1089): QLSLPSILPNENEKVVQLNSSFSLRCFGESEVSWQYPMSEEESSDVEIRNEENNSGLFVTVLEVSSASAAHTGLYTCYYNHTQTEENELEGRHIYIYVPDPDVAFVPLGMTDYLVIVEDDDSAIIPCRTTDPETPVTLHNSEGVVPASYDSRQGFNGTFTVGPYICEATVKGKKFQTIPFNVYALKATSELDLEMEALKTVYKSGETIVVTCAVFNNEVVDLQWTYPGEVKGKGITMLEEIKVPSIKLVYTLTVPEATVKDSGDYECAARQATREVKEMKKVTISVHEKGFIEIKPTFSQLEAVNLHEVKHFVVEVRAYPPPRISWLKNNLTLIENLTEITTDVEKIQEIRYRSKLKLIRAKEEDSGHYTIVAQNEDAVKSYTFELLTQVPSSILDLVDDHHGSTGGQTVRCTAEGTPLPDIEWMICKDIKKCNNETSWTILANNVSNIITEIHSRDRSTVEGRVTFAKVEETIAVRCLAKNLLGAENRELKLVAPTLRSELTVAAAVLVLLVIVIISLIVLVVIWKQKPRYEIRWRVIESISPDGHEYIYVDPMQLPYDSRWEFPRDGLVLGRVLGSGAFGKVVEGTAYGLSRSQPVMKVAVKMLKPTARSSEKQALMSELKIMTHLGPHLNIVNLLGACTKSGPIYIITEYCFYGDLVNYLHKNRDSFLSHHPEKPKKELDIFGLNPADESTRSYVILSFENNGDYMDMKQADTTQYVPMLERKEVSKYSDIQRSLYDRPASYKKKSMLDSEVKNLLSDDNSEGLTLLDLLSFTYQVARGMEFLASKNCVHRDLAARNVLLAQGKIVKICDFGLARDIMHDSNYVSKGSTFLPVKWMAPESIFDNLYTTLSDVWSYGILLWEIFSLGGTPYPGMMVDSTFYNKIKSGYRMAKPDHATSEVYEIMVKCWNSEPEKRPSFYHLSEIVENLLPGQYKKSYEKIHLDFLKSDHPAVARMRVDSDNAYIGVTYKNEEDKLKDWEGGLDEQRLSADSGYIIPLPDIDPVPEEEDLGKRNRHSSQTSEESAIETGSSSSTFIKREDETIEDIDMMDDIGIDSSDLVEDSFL

Row | SMILES | IC50 (PDGF-Ra) [nM] | IC50 (PDGF-Ra; Pharmacological Test Example 1) [nM] | IC50 (c-kit; h-SCF 50 ng/ml) [nM] | also measured
1 | COc1cc2nccc(Oc3ccc(NC(=S)NC(=O)c4cc(Cl)cc(Cl)c4)c(F)c3)c2cc1OC [Example 1122, N-(3,5-Dichlorobenzoyl)-N′-{4-[(6,7-dimethoxy-4-quinolyl)oxy]-2-fluorophenyl}thiourea] | > 100 |  |  | inhibition at 0.1 µM (PDGF-Ra; figure in parentheses in >100( ), at 100 nM): 48%; inhibition at 1 µM (c-kit; figure in parentheses in −( )): 26%
2 | CCN(CC)CCCNC(=S)Nc1ccc(Oc2ccnc3cc(OC)c(OC)cc23)c(C)c1C [Example 546, N-{4-[(6,7-Dimethoxy-4-quinolyl)oxy]-2,3-dimethylphenyl}-N′-(3-diethylaminopropyl)thiourea] | 54 |  |  | inhibition at 1 µM (c-kit; [1]): 44%
3 | COc1cc2nccc(Oc3ccc(NC(=O)NC4CCN(Cc5ccccc5Cl)C4)cc3)c2cc1OC (centres unmarked) [Example 579, N-[1-(2-Chlorobenzyl)tetrahydro-1H-3-pyrrolyl]-N′-{4-[(6,7-dimethoxy-4-quinolyl)oxy]phenyl}urea] | 22 |  |  | IC50 (c-kit; 50 ng/ml h-SCF): 145 nM
4 | CCCCOC(=O)Nc1ccc(Oc2ncnc3cc(OC)c(OC)cc23)cc1 [Example 344, Butyl N-{4-[(6,7-dimethoxy-4-quinazolinyl)oxy]phenyl}carbamate] |  | < 10 | < 30 | 
5 | COc1cc2nccc(Oc3cc(C)c(NC(=O)Oc4ccccc4OC)cc3C)c2cc1OC [Example 278, 2-Methoxyphenyl N-{4-[(6,7-dimethoxy-4-quinolyl)oxy]-2,5-dimethylphenyl}carbamate] |  | 53 | 289 | 
6 | COc1ccccc1COC(=O)Nc1ccc(Oc2ncnc3cc(OC)c(OC)cc23)cc1Cl [Example 316, 2-Methoxybenzyl N-{2-chloro-4-[(6,7-dimethoxy-4-quinazolinyl)oxy]phenyl}carbamate] |  | 10 |  | inhibition at 1 µM (c-kit; figure in parentheses in −( )): 40%
7 | COc1cc2ncnc(Oc3ccc(NC(=S)NC(=O)CCCc4ccccc4)cc3)c2cc1OC [Example 1139, N-{4-[(6,7-Dimethoxy-4-quinazolinyl)oxy]phenyl}-N′-(4-phenylbutanoyl)thiourea] | 12 |  |  | IC50 (c-kit; h-SCF stimulation): 783 nM
8 | COc1cc2ncnc(Oc3ccc(NC(=O)OC(C)c4cccc(OC(F)(F)F)c4)cc3)c2cc1OC (centres unmarked) [Example 183, 1-[3-(Trifluoromethoxy)phenyl]ethyl N-{4-[(6,7-dimethoxy-4-quinazolinyl)oxy]phenyl}carbamate] |  | 35 | 706 | 
9 | COc1cc2nccc(Oc3ccc(NC(=S)NC(=O)COc4ccccc4)cc3)c2cc1OC [Example 737, N-{4-[(6,7-Dimethoxy-4-quinolyl)oxy]phenyl}-N′-(2-phenoxyacetyl)thiourea] | < 10 |  |  | IC50 (c-kit; 50 ng/ml h-SCF): 523 nM
10 | CCN(CCNC(=O)Nc1ccc(Oc2ccnc3cc(OC)c(OC)cc23)cc1)c1cccc(C)c1 [Example 661, N-{4-[(6,7-Dimethoxy-4-quinolyl)oxy]phenyl}-N′-[2-(ethyl-3-methylanilino)ethyl]urea] | < 10 |  |  | IC50 (c-kit; 50 ng/ml h-SCF): 75 nM
11 | COc1cc2nccc(Oc3ccc(NC(=S)NC(=O)c4ccccc4I)cc3F)c2cc1OC [Example 915, N-{4-[(6,7-Dimethoxy-4-quinolyl)oxy]-3-fluorophenyl}-N′-(2-iodobenzoyl)thiourea] | 9 |  |  | IC50 (c-kit; h-SCF stimulation): 240 nM
12 | COc1cc2nccc(Oc3ccc(NC(=S)NCCCN4CCN(C)CC4)c(C)c3C)c2cc1OC [Example 557, N-{4-[(6,7-Dimethoxy-4-quinolyl)oxy]-2,3-dimethylphenyl}-N′-[3-(4-methylpiperazinyl)propyl]thiourea] | > 100 |  |  | PDGF (E) inhibition (%) at 100 nM (PDGF-Ra; [2]): 33%; IC50 (c-kit; 50 ng/ml h-SCF): 634 nM
13 | COc1cc2ncnc(Oc3ccc(NC(=S)NCCN4CCCCC4)cc3)c2cc1OC [Example 517, N-{4-[(6,7-Dimethoxy-4-quinazolinyl)oxy]phenyl}-N′-[2-(1-piperidinyl)ethyl]thiourea] | 38 |  |  | inhibition at 1 µM (c-kit; [1]): 33%
14 | COc1cc2ncnc(Oc3ccc(N(C)C(=O)OCc4ccccc4C)cc3)c2cc1OC [Example 491, 2-Methylbenzyl N-{4-[(6,7-dimethoxy-4-quinazolinyl)oxy]phenyl}-N-methylcarbamate] | 24 |  |  | IC50 (c-kit; 50 ng/ml h-SCF): 315 nM
15 | COc1cc2ncnc(Oc3ccc(N(C)C(=O)OC4CCCCCC4)c(Cl)c3)c2cc1OC [Example 482, Cycloheptyl N-{2-chloro-4-[(6,7-dimethoxy-4-quinazolinyl)oxy]phenyl}-N-methylcarbamate] | 24 |  |  | inhibition at 1 µM (c-kit; [1]): 5%
16 | COc1cc2nccc(Oc3ccc(NC(=S)NC(=O)CCCCl)cc3Cl)c2cc1OC [Example 1198, N-(4-Chlorobutanoyl)-N′-{3-chloro-4-[(6,7-dimethoxy-4-quinolyl)oxy]phenyl}thiourea] | < 10 |  |  | IC50 (c-kit; h-SCF stimulation): 247 nM
17 | COc1cc2ncnc(Oc3ccc(NC(=S)NCCCn4ccnc4)cc3)c2cc1OC [Example 526, N-{4-[(6,7-Dimethoxy-4-quinazolinyl)oxy]phenyl}-N′-[3-(1-imidazoyl)propyl]thiourea] | > 100 |  |  | inhibition at 0.1 µM (PDGF-Ra; [2]): 46%; IC50 (c-kit; 50 ng/ml h-SCF): 731 nM
18 | COc1cc2ncnc(Oc3ccc(NC(=O)OCCOc4ccccc4F)cc3)c2cc1OC [Example 206, 2-(2-Fluorophenoxy)ethyl N-{4-[(6,7-dimethoxy-4-quinazolinyl)oxy]phenyl}carbamate] |  | 13 | 80 | 
19 | COc1cc2ncnc(Oc3ccc(NC(=O)OCCN(C)C)cc3)c2cc1OC [Example 191, 2-(Dimethylamino)ethyl N-{4-[(6,7-dimethoxy-4-quinazolinyl)oxy]phenyl}carbamate] |  | 84 | 503 | 
20 | COc1cc2nccc(Oc3ccc(NC(=O)OCCN4CCOCC4)cc3)c2cc1OC [Example 306, 2-Morpholinoethyl N-{4-[(6,7-dimethoxy-4-quinolyl)oxy]phenyl}carbamate] |  | 11 | 72 | 

Further lines, with some results ahead:

Row | IC50 (PDGF-Ra) [nM] | IC50 (PDGF-Ra; Pharmacological Test Example 1) [nM] | IC50 (c-kit; h-SCF 50 ng/ml) [nM] | SMILES | also measured
21 | 52 |  |  | COc1cc2nccc(Oc3ccc(NCCCOc4ccccc4Cl)c(C)c3C)c2cc1OC [Example 893] | IC50 (c-kit; h-SCF stimulation): 640 nM
22 |  | 45 | 370 | COc1cc2nccc(Oc3cc(C)c(NC(=O)OCCSc4cc(C)ccc4C)cc3C)c2cc1OC [Example 167, 2-[(2,5-Dimethylphenyl)sulfanyl]ethyl N-{4-[(6,7-Dimethoxy-4-quinolyl)oxy]-2,5-dimethylphenyl}carbamate] | 
23 | 23 |  |  | COc1cc2nccc(Oc3ccc(NCCOc4c(OC)cccc4OC)cc3C)c2cc1OC [Example 882, N-[2-(2 6-Dimethoxyphenoxy)ethyl]-N-{4-[(6,7-dimethoxy-4-quinolyl)oxy]-3-methylphenyl}amine] | inhibition at 1 µM (c-kit; figure in parentheses in −( )): 36%
24 | 43 |  |  | COc1cc2nccc(Oc3ccc(NC(=O)NCCN(C(C)C)C(C)C)c(C)c3C)c2cc1OC [Example 655, N-[2-(Diisopropylamino)ethyl]-N′-{4-[(6,7-dimethoxy-4-quinolyl)oxy]-2,3-dimethylphenyl}urea] | inhibition at 1 µM (c-kit; [1]): 43%
25 |  | < 10 | 44 | COc1cc2nccc(Oc3ccc(NC(=O)OCCCOc4ccccc4Cl)cc3)c2cc1OC [Example 26, 3-(2-Chlorophenoxy)propyl N-{4-[(6,7-dimethoxy-4-quinolyl)oxy]phenyl}carbamate] | 
26 |  | 16 | 408 | COc1cc2nccc(Oc3cc(C)c(NC(=O)OCc4ccccc4C)cc3C)c2cc1OC [Example 245, 2-Methylbenzyl N-{4-[(6,7-dimethoxy-4-quinolyl)oxy]-2,5-dimethylphenyl}carbamate] | 
27 | 22 |  |  | COc1cc2nccc(Oc3ccc(NC(=S)NC(=O)c4cc(C)cc(C)c4)cc3Cl)c2cc1OC [Example 1019, N-{3-Chloro-4-[(6,7-dimethoxy-4-quinolyl)oxy]phenyl}-N′-(3,5-dimethylbenzoyl)thiourea] | IC50 (c-kit; h-SCF stimulation): 187 nM
28 |  | 27 | 399 | COc1cc2nccc(Oc3cc(C)c(NC(=O)OCCc4cccc(C(F)(F)F)c4)cc3C)c2cc1OC [Example 84, 3-(Trifluoromethyl)phenethyl N-{4-[(6,7-dimethoxy-4-quinolyl)oxy]-2,5-dimethylphenyl}carbamate] | 
29 |  | 90 | 429 | COc1ccc(COC(=O)Nc2cc(C)c(Oc3ccnc4cc(OC)c(OC)cc34)cc2C)cc1OC [Example 64, 3,4-Dimethoxybenzyl N-{4-[(6,7-dimethoxy-4-quinolyl)oxy]-2,5-dimethylphenyl}carbamate] | 
30 |  | 25 | 590 | COc1cc2nccc(Oc3cc(C)c(NC(=O)OC(C)c4ccc(F)cc4)cc3C)c2cc1OC (centres unmarked) [Example 104, 1-(4-Fluorophenyl)ethyl N-{4-[(6,7-dimethoxy-4-quinolyl)oxy]-2,5-dimethylphenyl}carbamate] | 
31 | < 10 |  |  | COc1cc2nccc(Oc3ccc(NC(=S)NC(=O)c4ccc(C)s4)cc3F)c2cc1OC [Example 1040, N-{4-[(6,7-Dimethoxy-4-quinolyl)oxy]-3-fluorophenyl}-N′-[(5-methyl-2-thienyl)carbonyl]thiourea] | IC50 (c-kit; h-SCF stimulation): 414 nM

— patent US7135466B2 (Kirin Beer Kabushiki Kaisha, priority 1999, dated 2006)
